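A five-concentration, 48-hour dose response in 96-well plates underlies each endpoint, interpolated linearly between surrounding concentrations. At the GI50, growth is halved. TGI denotes the concentration required for complete inhibition of growth.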
Experiments:
Test in all cases: DTP human tumour cell line panel, 48 h
[1] = test system: MOLT-4 leukemia
[2] = test system: CAKI-1 renal
[3] = test system: HL-60(TB) leukemia
[4] = test system: SK-MEL-2 melanoma
[5] = test system: A549 NSCLC
[6] = test system: HOP-62 NSCLC
[7] = test system: SF-539 CNS
[8] = test system: DU-145 prostate
[9] = test system: EKVX NSCLC
[10] = test system: OVCAR-8 ovarian
[11] = test system: BT-549 breast
[12] = test system: NCI-H460 lung
[13] = test system: M14 melanoma
[14] = test system: SNB-19 CNS
[15] = test system: K-562 leukemia
[16] = test system: UO-31 renal
[17] = test system: SNB-75 CNS
[18] = test system: SK-MEL-28 melanoma
[19] = test system: UACC-257 melanoma
[20] = test system: U251 CNS
[21] = test system: MDA-MB-231 breast
[22] = test system: A498 renal
[23] = test system: T-47D breast
[24] = test system: NCI-H23 lung
[25] = test system: MDA-MB-435
[26] = test system: COLO 205 colon
[27] = test system: KM12 colon
[28] = test system: OVCAR-5 ovarian
[29] = test system: ACHN renal
[30] = test system: SF-268 CNS
[31] = test system: TK-10 renal
[32] = test system: OVCAR-4 ovarian
[33] = test system: MALME-3M melanoma
[34] = test system: HCT-15 colon
[35] = test system: CCRF-CEM leukemia
[36] = test system: NCI/ADR-RES ovarian
[37] = test system: PC-3 prostate
[38] = test system: OVCAR-3 ovarian
[39] = test system: SK-MEL-5 melanoma
[40] = test system: SK-OV-3 ovarian
[41] = test system: NCI-H226 lung
[42] = test system: UACC-62 melanoma
[43] = test system: SN12C renal
[44] = test system: SF-295 CNS
[45] = test system: HOP-92 NSCLC
[46] = test system: IGROV1 ovarian
[47] = test system: 786-0 renal
[48] = test system: RPMI-8226 leukemia
[49] = test system: RXF 393 renal
[50] = test system: LOX IMVI melanoma
[51] = test system: HS 578T breast
[52] = test system: SW-620 colon
[53] = test system: HCT-116 colon
[54] = test system: HCC-2998 colon
[55] = test system: HT29 colon
[56] = test system: SR leukemia

O=[N+]([O-])/C=C\c1ccc(Cl)c(Cl)c1
GI50 [1]: 1.55 µM | TGI [1]: 6.9 µM | GI50 [2]: 1.32 µM | TGI [2]: 2.88 µM | GI50 [3]: 2.15 µM | TGI [3]: 10.5 µM | GI50 [4]: 2.56 µM | TGI [4]: 7.61 µM | GI50 [5]: 2.37 µM | TGI [5]: 5.43 µM | GI50 [6]: 2.88 µM | TGI [6]: 9.57 µM | GI50 [7]: 3.83 µM | TGI [7]: 18.2 µM | GI50 [8]: 1.81 µM | TGI [8]: 4.15 µM | GI50 [9]: 4.01 µM | TGI [9]: 17.5 µM | GI50 [10]: 1.94 µM | TGI [10]: 4.16 µM | GI50 [11]: 4.15 µM | TGI [11]: 14.9 µM | GI50 [12]: 3.64 µM | TGI [12]: 25.1 µM | GI50 [13]: 1.63 µM | TGI [13]: 3.29 µM | GI50 [14]: 3.77 µM | TGI [14]: 16.7 µM | GI50 [15]: 0.379 µM | TGI [15]: 5.08 µM | GI50 [16]: 1.08 µM | TGI [16]: 2.33 µM | GI50 [17]: 4.47 µM | TGI [17]: 17.5 µM | GI50 [18]: 2.48 µM | TGI [18]: 6.54 µM | GI50 [19]: 1.4 µM | TGI [19]: 2.89 µM | GI50 [20]: 0.916 µM | TGI [20]: 2.14 µM | GI50 [21]: 5.73 µM | TGI [21]: 23.2 µM | GI50 [22]: 0.667 µM | TGI [22]: 3.81 µM | GI50 [23]: 2.82 µM | TGI [23]: 13.9 µM | GI50 [24]: 1.63 µM | TGI [24]: 3.31 µM | GI50 [25]: 1.27 µM | TGI [25]: 2.86 µM | GI50 [26]: 3.48 µM | TGI [26]: 12.8 µM | GI50 [27]: 2.08 µM | TGI [27]: 4.56 µM | GI50 [28]: 8.89 µM | TGI [28]: 31.3 µM | GI50 [29]: 3.47 µM | TGI [29]: 13.3 µM | GI50 [30]: 2.42 µM | TGI [30]: 6.97 µM | GI50 [31]: 3.48 µM | TGI [31]: 12 µM | GI50 [32]: 11.5 µM | TGI [32]: 24 µM | GI50 [33]: 1.46 µM | TGI [33]: 6.05 µM | GI50 [34]: 3.23 µM | TGI [34]: 17 µM | TGI [35]: 4.75 µM | GI50 [36]: 2.18 µM | TGI [36]: 4.78 µM | GI50 [37]: 1.24 µM | TGI [37]: 3.93 µM | GI50 [38]: 1.96 µM | TGI [38]: 3.94 µM | GI50 [39]: 3.57 µM | TGI [39]: 14 µM | GI50 [40]: 14.4 µM | TGI [40]: 27.4 µM | GI50 [41]: 12 µM | TGI [41]: 27.9 µM | GI50 [42]: 10.9 µM | TGI [42]: 30.1 µM | GI50 [43]: 4.31 µM | TGI [43]: 62.5 µM | GI50 [44]: 1.83 µM | TGI [44]: 3.73 µM | GI50 [45]: 1.87 µM | TGI [45]: 5.01 µM | GI50 [46]: 0.602 µM | TGI [46]: 2.02 µM | GI50 [47]: 1.89 µM | TGI [47]: 3.56 µM | GI50 [48]: 0.249 µM | TGI [48]: 0.624 µM | GI50 [49]: 1.68 µM | TGI [49]: 3.11 µM | GI50 [50]: 0.412 µM | TGI [50]: 1.73 µM | GI50 [51]: 2.42 µM | TGI [51]: 7.6 µM | GI50 [52]: 1.3 µM | TGI [52]: 3.3 µM

O=C1c2c(c3c4ccccc4n(CCCCCCBr)c3c3[nH]c4ccccc4c23)C(=O)N1O
GI50 [1]: 1.94 µM | TGI [1]: 5.68 µM | GI50 [2]: 2.86 µM | TGI [2]: 9.5 µM | GI50 [3]: 2.08 µM | TGI [3]: 4.63 µM | GI50 [4]: 2.09 µM | TGI [4]: 5.27 µM | GI50 [5]: 3.31 µM | TGI [5]: 12.1 µM | GI50 [6]: 2.52 µM | TGI [6]: 9.06 µM | GI50 [53]: 2.15 µM | TGI [53]: 10.8 µM | GI50 [7]: 1.78 µM | TGI [7]: 3.77 µM | GI50 [8]: 4.01 µM | TGI [8]: 15.2 µM | GI50 [9]: 2.58 µM | TGI [9]: 9.57 µM | GI50 [10]: 3.11 µM | TGI [10]: 10.3 µM | GI50 [11]: 1.83 µM | TGI [11]: 6.53 µM | GI50 [12]: 3.35 µM | TGI [12]: 11.8 µM | GI50 [13]: 2.07 µM | TGI [13]: 7.68 µM | GI50 [14]: 4.98 µM | TGI [14]: 21.5 µM | GI50 [15]: 2.8 µM | TGI [15]: 10.2 µM | GI50 [16]: 2.11 µM | TGI [16]: 10.1 µM | GI50 [17]: 3.14 µM | TGI [17]: 16.5 µM | GI50 [18]: 2.95 µM | TGI [18]: 15.7 µM | GI50 [54]: 2.87 µM | TGI [54]: 12.5 µM | GI50 [19]: 2.74 µM | TGI [19]: 6.04 µM | GI50 [20]: 3.47 µM | TGI [20]: 13.3 µM | GI50 [21]: 2.9 µM | TGI [21]: 9.52 µM | GI50 [22]: 2.89 µM | TGI [22]: 9.14 µM | GI50 [23]: 1.74 µM | TGI [23]: 7.44 µM | GI50 [24]: 2.23 µM | TGI [24]: 7.09 µM | GI50 [25]: 1.98 µM | TGI [25]: 4.97 µM | GI50 [26]: 1.97 µM | TGI [26]: 4.7 µM | GI50 [27]: 2.59 µM | TGI [27]: 10.4 µM | GI50 [28]: 3.22 µM | TGI [28]: 17.4 µM | GI50 [29]: 2.61 µM | TGI [29]: 11.1 µM | GI50 [30]: 3.48 µM | TGI [30]: 18.3 µM | GI50 [55]: 1.73 µM | TGI [55]: 3.25 µM | GI50 [31]: 3.13 µM | TGI [31]: 11.7 µM | GI50 [32]: 3.45 µM | TGI [32]: 23.4 µM | GI50 [33]: 2.65 µM | TGI [33]: 7.74 µM | GI50 [34]: 2.64 µM | TGI [34]: 11.2 µM | GI50 [35]: 2.14 µM | TGI [35]: 5.53 µM | GI50 [36]: 2.49 µM | TGI [36]: 7.8 µM | GI50 [38]: 3.06 µM | TGI [38]: 13 µM | GI50 [39]: 1.48 µM | TGI [39]: 2.8 µM | GI50 [56]: 1.23 µM | TGI [56]: 4.71 µM | GI50 [40]: 2.87 µM | TGI [40]: 10.4 µM | GI50 [41]: 3.7 µM | TGI [41]: 16.4 µM | GI50 [42]: 1.69 µM | TGI [42]: 4.42 µM | GI50 [43]: 3.68 µM | TGI [43]: 12.8 µM | GI50 [44]: 2.75 µM | TGI [44]: 9.01 µM | GI50 [45]: 2.22 µM | TGI [45]: 6.7 µM | GI50 [46]: 2.13 µM | TGI [46]: 9.38 µM | GI50 [47]: 2.09 µM | TGI [47]: 5.81 µM | GI50 [48]: 1.92 µM | TGI [48]: 5.57 µM | GI50 [49]: 3.32 µM | TGI [49]: 14.5 µM | GI50 [51]: 5.14 µM | TGI [51]: 45.9 µM | GI50 [52]: 3.56 µM | TGI [52]: 14.3 µM
